Laboratory results published in patent publication US20110045101A1, “FUNGICIDAL SUBSTITUTED AZOLES” (E.I. Du Pont De Nemours and Company, priority 2009, published 2011).

Columns and labels:
Format in all cases: in vivo
Septoria tritici = experiment: Test G: wheat leaf blotch on wheat seedlings, sprayed the day before inoculation, visual disease rating; settings: Zymoseptoria tritici, 504 h, 100 = 100% disease control; for pest or weed control at 200 ppm: 0 = no control relative to controls
Procedure, shortened: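 Disease was rated visually after Septoria tritici inoculation, 48 h saturated incubation at 24°C and 19 days in a 20°C growth chamber. Inoculation followed one day after run-off spraying of seedlings with compound at 200 ppm (≈500 g/ha) or, where marked, 40 ppm, formulated in acetone/water with surfactant.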

[1] = test system: Erysiphe graminis f. sp. tritici; experiment: Test J: wheat powdery mildew on wheat seedlings, sprayed the day before inoculation, visual disease rating; settings: Blumeria graminis, 168 h, 100 = 100% disease control; for pest or weed control at 200 ppm: 0 = no control relative to controls
Procedure, shortened: (§1)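 Compounds were dissolved in acetone (3% of final volume), then suspended in 50/50 acetone/water with 250 ppm Trem 014 surfactant and sprayed to run-off on test plants. A 200 ppm suspension equals 500 g/ha. Ratings are at 200 ppm unless flagged as 40 ppm.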

[2] = test system: Puccinia recondita f. sp. tritici; experiment: Test I: wheat leaf rust on wheat seedlings, sprayed the day before inoculation, visual disease rating; settings: Puccinia recondita, 168 h, 100 = 100% disease control; for pest or weed control at 200 ppm: 0 = no control relative to controls
Procedure, shortened: as §1

Alternaria solani = experiment: Test D: tomato early blight, sprayed the day before inoculation, visual disease rating; settings: Alternaria solani, 168 h, 100 = 100% disease control; for pest or weed control at 200 ppm: 0 = no control relative to controls
Procedure, shortened: as §1

Botrytis cinerea = experiment: Test C: tomato Botrytis on tomato seedlings, sprayed the day before inoculation, visual disease rating; settings: Botrytis cinerea, 120 h, 100 = 100% disease control; for pest or weed control at 200 ppm: 0 = no control relative to controls
Procedure, shortened: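 Tomato seedlings sprayed to run-off with compound suspended in acetone/water with 250 ppm Trem 014 surfactant, at 200 ppm (≈500 g/ha) or 40 ppm where marked, one day before Botrytis cinerea inoculation. Disease rated visually.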

[3] = test system: Puccinia recondita f. sp. tritici; experiment: Test H: wheat leaf rust, test suspension sprayed after inoculation of wheat seedlings, visual disease rating; settings: Puccinia recondita, 96 h, 100 = 100% disease control; for pest or weed control at 200 ppm: 0 = no control relative to controls
Description: General protocol for preparing test suspensions for Tests A-J: The test compounds were first dissolved in acetone in an amount equal to 3% of the final volume and then suspended at the desired concentration (in ppm) in acetone and purified water (50/50 mix) containing 250 ppm of the surfactant Trem® 014 (polyhydric alcohol esters). The resulting test suspensions were then used in tests A-J. Spraying a 200 ppm test suspension to the point of run-off on the test plants was the equivalent of a rate of 500 g/ha. […] Wheat seedlings were inoculated with a spore suspension of Puccinia recondita f. sp. tritici (the causal agent of wheat leaf rust) and incubated in a saturated atmosphere at 20° C. for 24 h, and then moved to a growth chamber at 20° C. for 2 days. […] A dash (-) indicates no test results. All results are for 200 ppm except where followed by “*”, which indicates 40 ppm.

Septoria nodorum = experiment: Test F: wheat glume blotch on wheat seedlings, sprayed the day before inoculation, visual disease rating; settings: Parastagonospora nodorum, 264 h, 100 = 100% disease control; for pest or weed control at 200 ppm: 0 = no control relative to controls
Procedure, shortened: as §1

Compound | pest or weed control at 200 ppm (Septoria tritici) [%] | pest or weed control at 200 ppm [1] [%] | pest or weed control at 200 ppm [2] [%] | pest or weed control at 200 ppm (Alternaria solani) [%] | pest or weed control at 200 ppm (Botrytis cinerea) [%] | pest or weed control at 200 ppm [3] [%] | pest or weed control at 200 ppm (Septoria nodorum) [%] | pest or weed control at 40 ppm (Septoria tritici; 40 ppm (marked *)) [%] | pest or weed control at 40 ppm ([1]; 40 ppm (marked *)) [%] | pest or weed control at 40 ppm ([2]; 40 ppm (marked *)) [%] | pest or weed control at 40 ppm (Alternaria solani; 40 ppm (marked *)) [%] | pest or weed control at 40 ppm (Botrytis cinerea; 40 ppm (marked *)) [%] | pest or weed control at 40 ppm ([3]; 40 ppm (marked *)) [%] | pest or weed control at 40 ppm (Septoria nodorum; 40 ppm (marked *)) [%]
COc1cc(F)c(-c2c(Cl)nc(CF)n2-c2ccc(F)cc2)c(F)c1 [Compound 331, 4-chloro-5-(2,6-difluoro-4-methoxyphenyl)-2-(fluoromethyl)-1-(4-fluorophenyl)-1H-imidazole] | 95 | 100 | 100 | 100 | 100 | 85 | 99 | – | – | – | – | – | – | –
COc1cc(F)c(-c2c(Cl)nc(C=NO)n2-c2ccc(F)cc2)c(F)c1 [Compound 349, 4-chloro-5-(2,6-difluoro-4-methoxyphenyl)-1-(4-fluorophenyl)-1H-imidazole-2-carboxaldehyde oxime] | 88 | 95 | 99 | 99 | 100 | 0 | 99 | – | – | – | – | – | – | –
N#Cc1ccc(F)c(-c2c(Cl)ncn2-c2ccc(Cl)cc2)c1F [Compound 386, 3-[4-chloro-1-(4-chlorophenyl)-1H-imidazol-5-yl]-2,4-difluorobenzonitrile] | 96 | 95 | 98 | 100 | 99 | 0 | 0 | – | – | – | – | – | – | –
N#Cc1ccc(F)c(-c2c(Cl)nc(Br)n2-c2ccc(Cl)cc2)c1F [Compound 419, 3-[2-bromo-4-chloro-1-(4-chlorophenyl)-1H-imidazol-5-yl]-2,4-difluorobenzonitrile] | 100 | 99 | 97 | 100 | 100 | 0 | 100 | – | – | – | – | – | – | –
Cc1nc(Cl)c(-c2c(F)ccc(C#N)c2F)n1-c1ccc(Cl)cc1 [Compound 430, 3-[4-chloro-1-(4-chlorophenyl)-2-methyl-1H-imidazol-5-yl]-2,4-difluorobenzonitrile] | 100 | 100 | 100 | 100 | 100 | 0 | 100 | – | – | – | – | – | – | –
Fc1cccc(F)c1-c1c(Br)nc(CCBr)n1-c1ccc(Cl)cc1 [Compound 475, 4-bromo-2-(bromoethyl)-1-(4-chlorophenyl)-5-(2,6-difluorophenyl)-1H-imidazole] | 92 | 42 | 87 | 26 | 98 | 0 | 0 | – | – | – | – | – | – | –
COc1ccc(F)c(-c2c(Br)nc(Br)n2-c2ccc(F)cc2)c1F [Compound 504, 2,4-dibromo-5-(2,6-difluoro-3-methoxyphenyl)-1-(4-fluorophenyl)-1H-imidazole] | 97 | 100 | 99 | 100 | 99 | 0 | 100 | – | – | – | – | – | – | –
N#CCc1nc(Br)c(-c2c(F)cccc2F)n1-c1ccc(Cl)cc1 [Compound 509, 4-bromo-1-(4-chlorophenyl)-5-(2,6-difluorophenyl)-1H-imidazole-2-acetonitrile] | 92 | 78 | 85 | 77 | 98 | 9 | 0 | – | – | – | – | – | – | –
COC(=O)Cc1nc(Br)c(-c2c(F)cccc2F)n1-c1ccc(Cl)cc1 [Compound 544, methyl 4-bromo-1-(4-chlorophenyl)-5-(2,6-difluorophenyl)-1H-imidazole-2-acetate] | 82 | 86 | 91 | 98 | 84 | 9 | 0 | – | – | – | – | – | – | –
COc1ccc(F)c(-c2c(C)nc(C)n2-c2ccc(F)cc2)c1F [Compound 549, 5-(2,6-difluoro-3-methoxyphenyl)-1-(4-fluorophenyl)-2,4-dimethyl-1H-imidazole] | 98 | 100 | 100 | 100 | 100 | 0 | 99 | – | – | – | – | – | – | –
O=C(O)Cc1nc(Br)c(-c2c(F)cccc2F)n1-c1ccc(Cl)cc1 [Compound 570, 4-bromo-1-(4-chlorophenyl)-5-(2,6-difluorophenyl)-1H-imidazole-2-acetic acid] | 97 | 69 | 13 | 0 | 0 | 0 | 0 | – | – | – | – | – | – | –
CNC(=O)Cc1nc(Br)c(-c2c(F)cccc2F)n1-c1ccc(Cl)cc1 [Compound 571, 4-bromo-1-(4-chlorophenyl)-5-(2,6-difluorophenyl)-N-methyl-1H-imidazole-2-acetamide] | 82 | 0 | 90 | 0 | 33 | 0 | 0 | – | – | – | – | – | – | –
C=Cc1nc(Cl)c(-c2c(F)ccc(OC)c2F)n1-c1cccc(OC(F)F)c1 [Compound 583, 4-chloro-1-[3-(difluoromethoxy)phenyl]-5-(2,6-difluoro-3-methoxyphenyl)-2-ethenyl-1H-imidazole] | 94 | 83 | 85 | 97 | 99 | 0 | 0 | – | – | – | – | – | – | –
Cc1ccc(-n2c(C)nc(Cl)c2-c2c(F)cc(O)cc2F)cc1 [Compound 624, 4-[4-chloro-2-methyl-1-(4-methylphenyl)-1H-imidazol-5-yl]-3,5-difluorophenol] | 94 | 90 | 99 | 64 | 99 | 0 | 0 | – | – | – | – | – | – | –
COc1cc(OC)cc(-n2cnc(C)c2-c2c(F)cc(OC)cc2F)c1 [Compound 632, 5-(2,6-difluoro-4-methoxyphenyl)-1-(3,5-dimethoxyphenyl)-4-methyl-1H-imidazole] | 98 | 97 | 100 | 100 | 99 | 99 | 0 | – | – | – | – | – | – | –
COc1cc(F)c(-n2cnc(C)c2-c2ccc(Cl)nc2)c(F)c1 [Compound 685, 2-chloro-5-[1-(2,6-difluoro-4-methoxyphenyl)-4-methyl-1H-imidazol-5-yl]pyridine] | – | – | – | – | – | – | – | 87 | 64 | 68 | 99 | 100 | 0 | 0
